The target in one test is T1, EGFR tyrosine kinase (Homo sapiens, UniProt P00533).
T1 construct: Recombinant intracellular fragments of EGFR, erbB2 and erbB4; made in house; host or cells: baculovirus/Sf21 insect cells
The test is described as follows: Protein tyrosine kinase phosphorylation assay, Test (a), EGFR. It is filed as biochemical. To be noted: ATP at Km concentration; read-out: IC50 Test (a): Inhibition of EGFR tyrosine kinase protein phosphorylation. Here is the method:
(§1) a) Protein Tyrosine Kinase phosphorylation Assays
(§2) This test measures the ability of a test compound to inhibit the phosphorylation of a tyrosine containing polypeptide substrate by EGFR, erbB2 and erbB4 tyrosine kinase enzyme.
(§3) Recombinant intracellular fragments of EGFR, erbB2 and erbB4 (accession numbers X00588, X03363 and L07868 respectively) were cloned and expressed in the baculovirus/Sf21 system. […]
(§4) Constitutive kinase activity of these recombinant proteins was determined by their ability to phosphorylate a synthetic peptide (made up of a random co-polymer of Glutamic Acid, Alanine and Tyrosine in the ratio of 6:3:1). […]
(§5) The immobilised phospho-peptide product of the reaction was detected by immunological methods. […] After further washing, HRP activity in each well of the plate was measured colorimetrically using 22′-Azino-di-[3-ethylbenzthiazoline sulfonate (6)]diammonium salt crystals (ABTS™ from Roche) as a substrate.
(§6) Quantification of colour development and thus enzyme activity was achieved by the measurement of absorbance at 405 nm on a Molecular Devices ThermoMax microplate reader. Kinase inhibition for a given compound was expressed as an IC50 value. […] The range of phosphorylation was calculated from the positive (vehicle plus ATP) and negative (vehicle minus ATP) control values.

Another test concerns the target T2, erbB2 tyrosine kinase (Homo sapiens, UniProt P04626).
T2 construct: Recombinant intracellular fragments of EGFR, erbB2 and erbB4; made in house; host or cells: baculovirus/Sf21 insect cells
The test is described as follows: Protein tyrosine kinase phosphorylation assay, Test (a), erbB2. The test is classed as biochemical. To be noted: ATP at Km concentration; read-out: IC50 Test (a): Inhibition of erbB2 tyrosine kinase protein phosphorylation. The method, then: as §1, §2, §3, §4, §5, §6

The structures appear in SMILES notation.

T1 sequence (P00533 669-1210 limits assumed): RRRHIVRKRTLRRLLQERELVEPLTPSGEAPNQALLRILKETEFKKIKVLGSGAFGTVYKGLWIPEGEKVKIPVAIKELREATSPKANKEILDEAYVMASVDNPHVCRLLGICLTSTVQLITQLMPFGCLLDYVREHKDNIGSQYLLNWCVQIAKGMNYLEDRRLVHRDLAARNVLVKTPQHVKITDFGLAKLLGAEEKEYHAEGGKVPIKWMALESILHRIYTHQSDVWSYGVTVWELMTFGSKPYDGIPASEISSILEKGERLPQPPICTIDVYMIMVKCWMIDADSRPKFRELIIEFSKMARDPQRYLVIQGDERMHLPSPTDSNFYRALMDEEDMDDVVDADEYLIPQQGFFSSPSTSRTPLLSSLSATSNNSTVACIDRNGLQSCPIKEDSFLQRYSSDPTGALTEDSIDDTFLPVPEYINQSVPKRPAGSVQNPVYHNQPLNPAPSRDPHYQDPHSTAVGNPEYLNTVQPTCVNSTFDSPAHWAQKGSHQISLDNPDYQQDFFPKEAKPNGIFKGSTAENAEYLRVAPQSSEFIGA
T2 sequence (P04626 676-1255 limits assumed): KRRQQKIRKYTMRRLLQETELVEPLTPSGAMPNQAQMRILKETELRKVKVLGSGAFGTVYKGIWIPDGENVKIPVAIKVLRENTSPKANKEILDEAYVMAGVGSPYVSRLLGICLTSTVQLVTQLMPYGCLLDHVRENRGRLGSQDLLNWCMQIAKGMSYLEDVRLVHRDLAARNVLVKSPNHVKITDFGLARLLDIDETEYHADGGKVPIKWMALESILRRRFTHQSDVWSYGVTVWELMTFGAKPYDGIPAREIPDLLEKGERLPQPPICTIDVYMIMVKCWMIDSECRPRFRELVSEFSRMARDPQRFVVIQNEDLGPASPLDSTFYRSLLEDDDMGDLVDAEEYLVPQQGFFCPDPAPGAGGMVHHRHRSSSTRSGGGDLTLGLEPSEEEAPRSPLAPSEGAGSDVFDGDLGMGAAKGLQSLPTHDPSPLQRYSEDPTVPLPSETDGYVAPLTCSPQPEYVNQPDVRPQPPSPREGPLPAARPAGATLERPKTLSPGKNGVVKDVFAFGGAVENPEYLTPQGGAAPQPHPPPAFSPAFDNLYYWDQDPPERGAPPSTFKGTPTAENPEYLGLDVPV

Regarding `C[C@@H](Oc1cccc2ncnc(Nc3ccc4c(ccn4Cc4ccccn4)c3)c12)C(=O)N(C)C` [Example 2, (2R)—N,N-Dimethyl-2-[(4-{[1-(pyridin-2-ylmethyl)-1H-indol-5-yl]amino}quinazolin-5-yl)oxy]propanamide], the IC50 at EGFR tyrosine kinase came out at 170 nM; on erbB2 tyrosine kinase, 15 nM.

With `C[C@@H](Oc1cccc2ncnc(Nc3ccc4c(ccn4Cc4ccccn4)c3)c12)C(=O)N(C)CCO` [Example 1, (2R)—N-(2-Hydroxyethyl)-N-methyl-2-[(4-{[1-(pyridin-2-ylmethyl)-1H-indol-5-yl]amino}quinazolin-5-yl)oxy]propanamide], the IC50 was 370 nM at EGFR tyrosine kinase and 11 nM at erbB2 tyrosine kinase.

One may read the IC50 as the concentration needed to halve the response being measured.
